Consider 23 molecules from patent US6013795A, “Alpha-branched fluoroalkylcarbonyl fluorides and their derivatives” (3M Innovative Properties Company, priority 1996, dated 2000).

One data set in a line: thermal degradation in water and characterization of volatile products. The settings on record: aqueous solution, similar way. The format is physicochemical.
Protocol: The thermal degradation of an aqueous α-branched perfluoroalkylcarbonyl fluoride and the characterization of the products produced from the degradation were carried out using the following procedure. […] 5.7 g of volatile degradation products were then collected by azeotropic distillation using a Dean-Stark apparatus.
The thermal degradation of C7 F15 CF(CF3)COF (from Example A4) dispersed in water was also carried out by heating the aqueous mixture for several hours at approximately 80° C.
As for `O=C(O)C(F)(C(F)(F)F)C(F)(F)C(F)(F)C(F)(F)C(F)(F)C(F)(F)C(F)(F)C(F)(F)F` (stereo not shown) [Example M1, C7 F15 CF(CF3)COOH], the “degradation products in aqueous solution” value is “the same monohydride and olefin”.

The data set is the same for the next values; noted with them: deionized water, refluxed 2 hours.
As to `O=C(F)C(F)(C(F)(F)F)C(F)(F)C(F)(F)C(F)(F)C(F)(F)C(F)(F)C(F)(F)C(F)(F)F` (stereo not shown) [Example A1, C7 F15 CF(CF3)COF], the “monohydride C7 F15 CFHCF3 in degradation products” value worked out at 85%.

Still in this data set, the particulars now being: deionized water, refluxed 2 hours; cis/trans mixture.
As to `O=C(F)C(F)(C(F)(F)F)C(F)(F)C(F)(F)C(F)(F)C(F)(F)C(F)(F)C(F)(F)C(F)(F)F` (stereo not shown) [Example A1, C7 F15 CF(CF3)COF], the “olefin C6 F13 CF=CFCF3 in degradation products” value stood at 15%.

Still in this data set, the particulars now being: from 8 g, water, refluxed 2 hours.
On to `O=C(F)C(F)(C(F)(F)F)C(F)(F)C(F)(F)C(F)(F)C(F)(F)C(F)(F)C(F)(F)C(F)(F)F` (stereo not shown) [Example A1, C7 F15 CF(CF3)COF], for which the “volatile degradation products collected” value worked out at 5.7 g.

Still in this data set, the particulars now being: water, several hours at approximately 80° C.
With `O=C(F)C(F)(C(F)(F)F)C(F)(F)C(F)(F)C(F)(F)C(F)(F)C(F)(F)C(F)(F)C(F)(F)F` (stereo not shown) [Example A1, C7 F15 CF(CF3)COF], the volatile products formed result is reported as “The same volatile products were formed”.

A short description of the next data set: surface tension of aqueous surfactant solutions and critical micelle concentration (K-12 Processor Tensiometer). The settings on record: carboxylate salts, deionized water; Table 5. The format is physicochemical.
Text: Critical Micelle Concentration (CMC): The critical micelle concentration is defined as the concentration at which further surface tension is no longer lowered with increasing levels of surfactant. […] Surface tension is then plotted vs. log concentration and the data points are connected. The resulting curve has a nearly horizontal flat portion at concentrations above the CMC and has a negative steep slope at concentrations below the CMC. The CMC is defined as the lowest surfactant concentration in the horizontal flat portion of the curve.
(§1) Then the critical micelle concentration (CMC) was determined for each surfactant.
as §1
Consider `O=C(O)C(F)(C(F)(F)F)C(F)(F)C(F)(F)C(F)(F)C(F)(F)C(F)(F)C(F)(F)C(F)(F)F` (stereo not shown) [Example M27, C7 F15 CF(CF3)COO^- Li^+], for which the CMC was 3500 ppm and the “Surf. Tens. at the CMC” value is given as 24.1 dynes/cm.

Regarding `O=C(O)C(F)(C(F)(F)F)C(F)(F)C(F)(F)C(F)(F)C(F)(F)C(F)(F)C(F)(F)F` (stereo not shown) [Example M25, C6 F13 CF(CF3)COO^- Na^+], the CMC is recorded as 10000 ppm and the “Surf. Tens. at the CMC” value was 19.8 dynes/cm.

Consider `O=C(O)C(F)(C(F)(F)F)C(F)(F)C(F)(F)C(F)(F)C(F)(F)C(F)(F)C(F)(F)C(F)(F)C(F)(F)F` (stereo not shown) [Example M17, C8 F17 CF(CF3)COO^- H4 N^+], for which the CMC is reported as 2300 ppm and the “Surf. Tens. at the CMC” value is reported as 14.7 dynes/cm.

Take `O=C(O)C(F)(C(F)(F)F)C(F)(F)C(F)(F)C(F)(F)C(F)(F)C(F)(F)C(F)(F)C(F)(F)C(F)(F)C(F)(F)C(F)(F)F` (stereo not shown) [Example M18, C10 F21 CF(CF3)COO^- H4 N^+]: the CMC amounted to 600 ppm and the “Surf. Tens. at the CMC” value was determined as 14.8 dynes/cm.

`O=C(O)C(F)(C(F)(F)F)C(F)(F)C(F)(F)C(F)(F)C(F)(F)C(F)(F)C(F)(F)C(F)(F)F` (stereo not shown) [Example M20, C7 F15 CF(CF3)COO^- H3 N^+ C2 H4 OH]: the CMC is reported as 500 ppm and the “Surf. Tens. at the CMC” value was 15.0 dynes/cm.

In the case of `O=C(O)C(F)(C(F)(F)F)C(F)(F)C(F)(F)C(F)(F)C(F)(F)C(F)(F)C(F)(F)F` (stereo not shown) [Example M22, C6 F13 CF(CF3)COO^- K^+], the CMC is recorded as 10000 ppm and the “Surf. Tens. at the CMC” value was found to be 17.5 dynes/cm.

`O=C(O)C(F)(C(F)(F)F)C(F)(F)C(F)(F)C(F)(F)C(F)(F)C(F)(F)C(F)(F)C(F)(F)F` (stereo not shown) [Example M23, C7 F15 CF(CF3)COO^- K^+]: the CMC was found to be 2500 ppm and the “Surf. Tens. at the CMC” value was 15.0 dynes/cm.

Consider `O=C(O)C(F)(C(F)(F)F)C(F)(F)C(F)(F)C(F)(F)C(F)(F)C(F)(F)C(F)(F)C(F)(F)F` (stereo not shown) [Example M30, C7 F15 CF(CF3)COO^- 1/2 [H3 N^+ C2 H4 NHC2 H4 N^+ H3]], for which the CMC is 3000 ppm and the “Surf. Tens. at the CMC” value stood at 16.2 dynes/cm.

For the molecule `O=C(O)C(F)(C(F)(F)F)C(F)(F)C(F)(F)C(F)(F)C(F)(F)C(F)(F)C(F)(F)C(F)(F)F` (stereo not shown) [Example M26, C7 F15 CF(CF3)COO^- Na^+], the CMC is on record as 3000 ppm and the “Surf. Tens. at the CMC” value came out at 19.4 dynes/cm.

Still in this data set, the particulars now being: deionized water; Table 3.
Turning to `C[N+](C)([O-])CCCNC(=O)C(F)(C(F)(F)C(F)(F)C(F)(F)F)C(F)(F)C(F)(F)C(F)(F)C(F)(F)C(F)(F)C(F)(F)C(F)(F)F` (stereo not shown) [Example E7, C7 F15 CF(C3 F7)CONH(CH2)3 N^+ (CH3)2 O^-], the “solubility remark” value is on record as “low solub”.

As to `C[N+](C)(CCCNC(=O)C(F)(C(F)(F)F)C(F)(F)C(F)(F)C(F)(F)C(F)(F)C(F)(F)C(F)(F)C(F)(F)F)CCC(=O)[O-]` (stereo not shown) [Example K1, C7 F15 CF(CF3)CONH(CH2)3 N^+ (CH3)2 C2 H4 COO^-], the “Surf. Tens. at the CMC” value is 16.6 dynes/cm.

For the molecule `C[N+](C)([O-])CCCNC(=O)C(F)(C(F)(F)F)C(F)(F)C(F)(F)C(F)(F)C(F)(F)C(F)(F)C(F)(F)C(F)(F)C(F)(F)C(F)(F)C(F)(F)F` (stereo not shown) [Example E5, C10 F21 CF(CF3)CONH(CH2)3 N^+ (CH3)2 O^-], the CMC was 500 ppm and the “Surf. Tens. at the CMC” value was determined as 17.1 dynes/cm.

Regarding `O=C(NCCC[N+]1(CCO)CCOCC1)C(F)(C(F)(F)F)C(F)(F)C(F)(F)C(F)(F)C(F)(F)C(F)(F)C(F)(F)C(F)(F)F` (stereo not shown) [Example F5], the CMC is 1000 ppm and the “Surf. Tens. at the CMC” value is 20.8 dynes/cm.

With `C[N+](C)([O-])CCCNC(=O)C(F)(C(F)(F)F)C(F)(F)C(F)(F)C(F)(F)C(F)(F)C(F)(F)C(F)(F)C(F)(F)C(F)(F)F` (stereo not shown) [Example E4, C8 F17 CF(CF3)CONH(CH2)3 N^+ (CH3)2 O^-], the CMC turned out to be 20 ppm and the “Surf. Tens. at the CMC” value was 16.5 dynes/cm.

Regarding `O=C(NCCC[N+]1([O-])CCOCC1)C(F)(C(F)(F)F)C(F)(F)C(F)(F)C(F)(F)C(F)(F)C(F)(F)C(F)(F)C(F)(F)F` (stereo not shown) [Example E9], the “solubility remark” value is listed as “low solub”.

For `C[N+](C)([O-])CCCNC(=O)C(F)(C(F)(F)F)C(F)(F)C(F)(F)C(F)(F)C(F)(F)C(F)(F)C(F)(F)F` (stereo not shown) [Example E3, C6 F13 CF(CF3)CONH(CH2)3 N^+ (CH3)2 O^-], the CMC was determined as 100 ppm and the “Surf. Tens. at the CMC” value stood at 16.6 dynes/cm.

With “C6 F13 CF(CF3)CON(C3 H6 SO3^-)(CH2)3 N^+ (CH3)2 H [Example K2]”, the CMC was determined as 500 ppm and the “Surf. Tens. at the CMC” value is 20.3 dynes/cm.

In the case of `C[N+](C)(CCCN(CCC[N+](C)(C)CCC(=O)[O-])C(=O)C(F)(C(F)(F)F)C(F)(F)C(F)(F)C(F)(F)C(F)(F)C(F)(F)C(F)(F)C(F)(F)F)CCC(=O)[O-]` (stereo not shown) [Example K4], the CMC is recorded as 100 ppm and the “Surf. Tens. at the CMC” value stood at 23.6 dynes/cm.

Regarding `O=C(NCCOC(=O)C(F)(C(F)(F)F)C(F)(F)C(F)(F)C(F)(F)C(F)(F)C(F)(F)C(F)(F)F)c1cc[n+]([O-])cc1` (stereo not shown) [Example E11], the CMC stood at 1000 ppm and the “Surf. Tens. at the CMC” value is 15.5 dynes/cm.

As for `C[N+](C)([O-])CCCN(CCO)C(=O)C(F)(C(F)(F)F)C(F)(F)C(F)(F)C(F)(F)C(F)(F)C(F)(F)C(F)(F)C(F)(F)F` (stereo not shown) [Example E8, C7 F15 CF(CF3)CON(C2 H4 OH)(CH2)3 N^+ (CH3)2 O^-], the “Surf. Tens. at the CMC” value came to 16.6 dynes/cm.

With `O=C(OCCc1cccc[n+]1[O-])C(F)(C(F)(F)F)C(F)(F)C(F)(F)C(F)(F)C(F)(F)C(F)(F)C(F)(F)C(F)(F)F` (stereo not shown) [Example E13], the CMC is 6000 ppm and the “Surf. Tens. at the CMC” value came out at 15.0 dynes/cm.
